Reference: US20250186401A1, “COMBINATORIAL ACTIVATION OF GABA(B) AND A2 ADRENERGIC RECEPTORS PROVIDES RELIEF FROM STRESS INDUCED DEPRESSION” (University of Florida Research Foundation, Incorporated, priority 2022, published 2025)

Test system: mice subjected to UCMS
Assay: TST in unpredictable chronic mild stress (UCMS) model
Assay type: in vivo
Conditions: UCMS mice (4 weeks); injection day 29, TST 30 min after; vs vehicle; FIG. 3B
Procedure: TST was performed 30 min after injection time. To perform the TST, the tails of the mice were wrapped with tape that covered approximately 4/5 of the tail length and then fixed upside down on a hook. The immobility time of each mouse was recorded and tracked over a 6 min period. The Porsolt FST was conducted using vertical clear glass cylinder (10 cm in diameter, 25 cm in height) filled with water (25° C.). The mice spent 6 min in the water and immobility was scored from 2 to 6 min. A mouse was regarded as immobile when floating motionless or making only those movements necessary to keep its head above the water.
This study investigated the effects of ClonBac in a mouse model of unpredictable chronic mild stress (0). For the UCMS paradigm, mice were housed in individual cages and were subjected to 4 weeks of stressors, with two stressors applied within a 24 hr period. Stressors were applied pseudo-randomly and included: intermittent bell (10 db, 1/10 s), continuous white noise for 4 h, rat odor, 45° cage tilt for 4 h, 30 minute cage shaking, soiled bedding for 8 hr, paired housing with a new partner for 2 h, overnight illumination, removal of nesting material for 12 hr, placement of a novel object in home cage for 3 h, and physical restraint for 1 h. Stressors continued to be applied during the behavioral testing phase. […]

## NCC(CC(=O)O)c1ccc(Cl)cc1 (stereo not drawn) [baclofen, β-(4-chlorophenyl)-γ-aminobutyric acid]
  TST immobility time: significantly attenuated immobility TST time
